For data set [1], the target named is T1, receptors of AR type (Homo sapiens, UniProt P10275).
T1 construct: expressed in transfected cells; host or cells: PALM cells (PC3 stably transfected with PMMTV-neo-Luc and pSG5puro-AR)
T1 sequence (P10275 1-920): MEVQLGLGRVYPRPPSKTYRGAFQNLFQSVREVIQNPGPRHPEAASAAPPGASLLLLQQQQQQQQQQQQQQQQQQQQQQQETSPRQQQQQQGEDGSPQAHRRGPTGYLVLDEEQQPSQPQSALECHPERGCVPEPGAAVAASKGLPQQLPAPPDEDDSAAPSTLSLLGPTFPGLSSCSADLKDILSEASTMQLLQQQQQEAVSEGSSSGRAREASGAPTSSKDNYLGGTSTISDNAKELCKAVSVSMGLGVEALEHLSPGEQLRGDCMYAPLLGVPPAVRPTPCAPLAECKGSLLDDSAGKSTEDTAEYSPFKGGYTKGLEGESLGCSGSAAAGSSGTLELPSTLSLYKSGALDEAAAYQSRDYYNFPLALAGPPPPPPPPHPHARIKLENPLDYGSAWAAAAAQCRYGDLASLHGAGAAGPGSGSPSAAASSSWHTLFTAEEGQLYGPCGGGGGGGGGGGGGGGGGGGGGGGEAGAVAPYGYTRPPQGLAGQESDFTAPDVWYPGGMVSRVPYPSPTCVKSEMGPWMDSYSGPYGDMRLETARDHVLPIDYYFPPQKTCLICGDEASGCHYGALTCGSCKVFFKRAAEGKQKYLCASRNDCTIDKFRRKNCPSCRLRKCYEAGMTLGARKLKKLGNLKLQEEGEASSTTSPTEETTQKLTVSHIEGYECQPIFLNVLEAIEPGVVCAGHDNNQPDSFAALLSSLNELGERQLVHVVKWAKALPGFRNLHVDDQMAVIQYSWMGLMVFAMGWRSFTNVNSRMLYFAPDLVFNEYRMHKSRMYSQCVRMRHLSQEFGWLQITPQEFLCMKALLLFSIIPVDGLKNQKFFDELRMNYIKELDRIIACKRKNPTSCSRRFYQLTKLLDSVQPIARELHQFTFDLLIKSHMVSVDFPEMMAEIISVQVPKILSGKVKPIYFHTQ
The experiment in a line: AR transactivation test in PALM (PC3 Androgen receptor Luciferase MMTV) cell line. In kind it is cell-based. The conditions noted are these: cross curves against reference agonist methyltrienolone, read-out: Kdapp (apparent dissociation constant). The procedure: The compounds according to the invention show inhibitory properties on receptors of AR type. This AR receptor-inhibiting activity is measured in a transactivation test through the KdR (resting), KdA (active) and Kdapp (apparent) dissociation constants according to the method set out in J. Molecular Biology (1965), 12(1), 88-118, Monod J. of et al.
The transactivation test is carried out in the PALM (PC3 Androgen receptor Luciferase MMTV) cell line which is a stable transfectant containing the PMMTV-neo-Luc (reporter gene) and pSG5puro-AR plasmids.
In this study, the affinity of each product for the 2 receptor states (KdR and KdA) is determined, as is an apparent Kd (KdApp). This constant is a result of the 2 Kd, but also depends on the initial equilibrium of the receptor between the active state and the resting state (L0) and on its expression level. It is determined by means of the following formula: 1/KdApp=(L0/(1+L0))×(1/KdR)+(1/(1+L0))×(1/KdA)
To determine these constants, “cross curves” of the test product against a reference agonist, methyltrienolone, are produced in 96-well plates. The test product is used at 10 concentrations and the reference agonist at 7 concentrations, […]

Turning to `COc1cc(NCc2ccccc2O)cc(Br)n1` [Example 1, 2-[(2-Bromo-6-methoxypyridin-4-ylamino)methyl]phenol], the melting point amounted to 137 °C. Also, in data set [1], the Kd worked out at 20 nM. In the case of `Oc1ccccc1CNc1ccnc(Cl)c1` [Example 2, 2-[(2-Chloropyridin-4-ylamino)methyl]phenol], in data set [1], the Kd stood at 4 nM. Same read-out and setting: the same measure for `Oc1ccc(F)cc1CNc1ccnc(Br)c1` [Example 4, 2-[(2-Bromopyridin-4-ylamino)methyl]-4-fluorophenol]: 20 nM. As for `COc1cc(NCc2ccccc2O)ccn1` [Example 5, 2-[(2-Methoxypyridin-4-ylamino)methyl]phenol], the Kd in data set [1] was 50 nM.

Broadly, the melting point is the temperature, or range, at which the solid turns liquid.
